Assay results as given in ChEMBL document CHEMBL5360537, “From lead to clinic: A review of the structural design of P2X7R antagonists” (Eur J Med Chem, 2023).
pIC50: −log10 of the molar value.

How the values were obtained:
P2X purinoceptor 7 [1] = molecular target: T1, P2X purinoceptor 7 (Homo sapiens, UniProt Q99572); assay: Antagonist activity at human P2X7 receptor by calcium flux assay
T1 sequence (Q99572 whole entry): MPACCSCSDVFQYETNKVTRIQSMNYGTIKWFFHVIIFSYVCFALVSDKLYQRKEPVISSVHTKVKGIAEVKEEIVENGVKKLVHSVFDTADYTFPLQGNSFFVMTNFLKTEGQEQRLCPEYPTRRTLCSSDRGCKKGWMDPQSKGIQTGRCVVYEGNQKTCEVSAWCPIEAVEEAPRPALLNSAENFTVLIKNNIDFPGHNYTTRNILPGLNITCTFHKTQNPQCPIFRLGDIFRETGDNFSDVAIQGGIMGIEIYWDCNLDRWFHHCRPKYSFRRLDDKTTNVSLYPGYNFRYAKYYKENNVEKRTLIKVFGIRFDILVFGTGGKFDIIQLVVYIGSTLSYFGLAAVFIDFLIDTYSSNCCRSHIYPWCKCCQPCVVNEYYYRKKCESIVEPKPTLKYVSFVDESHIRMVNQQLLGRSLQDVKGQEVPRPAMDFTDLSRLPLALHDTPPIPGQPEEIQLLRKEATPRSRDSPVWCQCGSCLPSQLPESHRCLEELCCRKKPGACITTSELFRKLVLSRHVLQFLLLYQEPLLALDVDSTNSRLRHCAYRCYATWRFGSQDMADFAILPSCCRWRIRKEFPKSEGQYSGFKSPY

P2X purinoceptor 7 [2] = molecular target: T2, P2X purinoceptor 7 (Rattus norvegicus, UniProt Q64663); assay: Antagonist activity at rat P2X7 receptor by calcium flux assay
T2 sequence (Q64663 whole entry): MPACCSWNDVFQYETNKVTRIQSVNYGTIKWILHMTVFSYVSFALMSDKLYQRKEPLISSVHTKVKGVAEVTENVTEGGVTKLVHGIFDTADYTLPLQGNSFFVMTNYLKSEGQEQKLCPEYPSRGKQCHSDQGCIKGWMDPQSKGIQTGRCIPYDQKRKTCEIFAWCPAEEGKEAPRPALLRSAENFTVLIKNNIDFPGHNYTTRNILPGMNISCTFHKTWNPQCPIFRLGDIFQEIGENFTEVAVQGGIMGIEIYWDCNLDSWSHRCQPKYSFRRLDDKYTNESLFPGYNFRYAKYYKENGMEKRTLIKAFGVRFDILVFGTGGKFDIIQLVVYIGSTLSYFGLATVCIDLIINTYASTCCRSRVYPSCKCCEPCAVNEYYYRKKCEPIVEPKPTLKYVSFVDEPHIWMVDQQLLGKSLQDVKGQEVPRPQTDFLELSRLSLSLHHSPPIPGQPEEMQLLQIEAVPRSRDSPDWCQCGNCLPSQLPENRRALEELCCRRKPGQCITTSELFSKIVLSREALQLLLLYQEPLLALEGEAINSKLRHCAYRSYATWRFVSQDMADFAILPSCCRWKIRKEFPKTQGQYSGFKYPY

P2X purinoceptor 7 [3] = molecular target: T3, P2X purinoceptor 7 (Mus musculus, UniProt Q9Z1M0); assay: Antagonist activity at mouse P2X7 receptor by calcium flux assay
T3 sequence (Q9Z1M0 whole entry): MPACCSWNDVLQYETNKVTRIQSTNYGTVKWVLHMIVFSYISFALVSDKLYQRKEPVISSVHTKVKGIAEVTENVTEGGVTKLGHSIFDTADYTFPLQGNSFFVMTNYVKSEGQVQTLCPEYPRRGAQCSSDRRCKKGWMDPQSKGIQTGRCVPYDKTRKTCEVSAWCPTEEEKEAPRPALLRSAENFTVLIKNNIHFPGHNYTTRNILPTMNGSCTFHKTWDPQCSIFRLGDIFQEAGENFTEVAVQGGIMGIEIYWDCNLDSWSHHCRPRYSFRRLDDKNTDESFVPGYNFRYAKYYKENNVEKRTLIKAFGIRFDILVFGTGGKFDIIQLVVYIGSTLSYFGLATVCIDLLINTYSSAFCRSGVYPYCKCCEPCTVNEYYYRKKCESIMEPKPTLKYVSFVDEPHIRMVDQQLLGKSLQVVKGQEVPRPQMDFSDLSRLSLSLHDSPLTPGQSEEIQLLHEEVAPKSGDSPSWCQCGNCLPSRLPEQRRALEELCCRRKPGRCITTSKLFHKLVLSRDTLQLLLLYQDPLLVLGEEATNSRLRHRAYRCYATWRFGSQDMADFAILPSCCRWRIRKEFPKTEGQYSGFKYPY

P2X purinoceptor 7 [4] = molecular target: T1, P2X purinoceptor 7; assay: Antagonist activity at human P2X7 receptor
P2X purinoceptor 7 [5] = molecular target: T1, P2X purinoceptor 7; assay: Inhibition of human P2X7 receptor transfected in HEK293 cells by calcium influx assay; type: cell-based
P2X purinoceptor 7 [6] = molecular target: T1, P2X purinoceptor 7; assay: Inhibition of P2X7 (unknown origin) assessed as reduction in IL-1 beta release
P2X purinoceptor 7 [7] = molecular target: T1, P2X purinoceptor 7; assay: Inhibition of P2X7 in human THP-1cells assessed as reduction in YO-PRO-1 iodide dye uptake measured after 24 hrs by fluorescence based assay; type: cell-based
P2X purinoceptor 7 [8] = molecular target: T1, P2X purinoceptor 7; assay: Antagonist activity at human P2X7 receptor expressed in 1321N1 cells by FLIPR assay; type: cell-based
P2X purinoceptor 7 [9] = molecular target: T1, P2X purinoceptor 7; assay: Antagonist activity at P2X7 receptor in human THP-1 cells assessed as reduction in ATP induced IL-1 beta release; type: cell-based
P2X purinoceptor 7 [10] = molecular target: T3, P2X purinoceptor 7; assay: Antagonist activity at P2X7 receptor in mouse Peritoneal macrophage cells assessed as reduction in ATP induced IL-1 beta release; type: cell-based
[11] = molecular target: T4, P2X purinoceptor 7 (Mus musculus) (UniProt Q9Z1M0); assay: Antagonist activity at P2X7 receptor in mouse Peritoneal macrophage cells assessed as ATP induced dye uptake at 10 uM relative to control; type: cell-based
T4 sequence (whole entry): T3 sequence (Q9Z1M0 whole entry)

P2X purinoceptor 7 [12] = molecular target: T1, P2X purinoceptor 7; assay: Antagonist activity at human P2X7 receptor expressed in HEK293 by fluorescence plate reader analysis; type: cell-based

Work on `Cc1noc(C)c1Cc1noc(=O)n1CC1CCC(F)(F)CC1` yielded a pIC50 (P2X purinoceptor 7 [1]) greater than 6.70, a pIC50 (P2X purinoceptor 7 [2]) of 6.70 and a pIC50 (P2X purinoceptor 7 [3]) of 6.00.

For `Cc1nc2cc(C)c(Nc3nc(=O)c4[nH]cnc4n3Cc3ccc(F)cc3)cc2s1`, the pIC50 (P2X purinoceptor 7 [4]) was 7.96.

Compound `COc1ccc(Nc2nc(=O)c3nn(C)cc3n2Cc2cc(F)c(F)c(F)c2)c(C)c1` has a pIC50 (P2X purinoceptor 7 [4]) greater than 8.00.

For `O=C(NCc1ccc(F)cc1Cl)[C@]1(F)CC[C@H](OCCO)c2ncccc21`, the pIC50 (P2X purinoceptor 7 [5]) was greater than 7.30.

`C[C@@H](CO)n1ccc2c(NC(=O)CC34CC5CC(CC(C5)C3)C4)cccc2c1=O` was tested, and the pIC50 (P2X purinoceptor 7 [6]) was 9.82 and the pIC50 (P2X purinoceptor 7 [7]) was 6.97.

In the case of `COc1ccc(Cc2noc(=O)n2CC2CCC(F)(F)CC2)cc1`, the pIC50 (P2X purinoceptor 7 [1]) was 6.00, the pIC50 (P2X purinoceptor 7 [2]) was 6.00 and the pIC50 (P2X purinoceptor 7 [3]) was 6.00.

`Cc1ccc(-c2ncco2)cc1Nc1nc(=O)cnn1Cc1cc(F)c(F)c(F)c1` showed a pIC50 (P2X purinoceptor 7 [8]) of 8.62.

`Cc1c(Cl)cccc1Nc1nc(=O)cc2n1C(c1ccccc1)CC2` (stereo unspecified) gave a pIC50 (P2X purinoceptor 7 [4]) greater than 8.00.

`Cc1nc2cc(C)c(Nc3nc(=O)cc4n3C(c3ccc(F)cc3)CC4)cc2s1` (stereo unspecified) gave a pIC50 (P2X purinoceptor 7 [4]) greater than 8.00.

In the case of `CCN1C(=O)N=C(Nc2cc(C)c(C)cc2C)N2C1=NCC2c1ccccc1` (stereo unspecified), the pIC50 (P2X purinoceptor 7 [4]) was greater than 8.00.

`CC1=C(Cn2cc(COCc3ccco3)nn2)C(=O)c2ccccc2C1=O` was tested, and the pIC50 (P2X purinoceptor 7 [9]) was 3.73, the pIC50 (P2X purinoceptor 7 [10]) was 3.80 and the inhibition ([11]; filed as antagonist) was 60%.

`CN1C(=O)N=C(NCc2ccccc2)N2C1=NCC2c1cc(F)c(F)c(F)c1` (stereo unspecified) gave a pIC50 (P2X purinoceptor 7 [4]) greater than 8.00.

With `COc1ccc(Nc2nc(=O)cc3n2C(c2ccccc2)CN3C)c(C)c1` (stereo unspecified) the pIC50 (P2X purinoceptor 7 [4]) was greater than 8.00.

`O=c1onc(Cc2c(F)cccc2Cl)n1CC1CCC(C(F)(F)F)CC1` (stereo unspecified) was tested, and the pIC50 (P2X purinoceptor 7 [1]) was greater than 6.70, the pIC50 (P2X purinoceptor 7 [2]) was greater than 6.70 and the pIC50 (P2X purinoceptor 7 [3]) was greater than 6.70.

Compound `Cc1c(Cl)cccc1Nc1nc(=O)cc2n1C(c1ccccc1)CO2` (stereo unspecified) has a pIC50 (P2X purinoceptor 7 [4]) greater than 8.00.

With `CC1=C(C(C)n2cc(COCc3ccco3)nn2)C(=O)c2ccccc2C1=O` (stereo unspecified) the inhibition [11] was less than 60%.

`O=c1onc(CN2CCC(F)(F)CC2)n1CC1CCC(F)(F)CC1` gave a pIC50 (P2X purinoceptor 7 [1]) of less than 5.00, a pIC50 (P2X purinoceptor 7 [2]) of less than 5.00 and a pIC50 (P2X purinoceptor 7 [3]) of less than 5.00.

`Cc1cc(Nc2nc(=O)c3[nH]cnc3n2Cc2ccccc2)c(C)cc1Cl` showed a pIC50 (P2X purinoceptor 7 [4]) greater than 8.00.

Compound `Cc1c(Cl)cccc1Nc1nc(=O)cc2n1C(c1ccccc1)COC2` (stereo unspecified) has a pIC50 (P2X purinoceptor 7 [4]) of 8.74.

In the case of `CC1CCCC(O)(CNC(=O)c2cn(C3COC3)c3cccc(Cl)c23)C1` (stereo unspecified), the pIC50 (P2X purinoceptor 7 [12]) was greater than 8.00.

Work on `COCCn1cc(C(=O)NC[C@@]2(O)CCCC(F)(F)C2)c2c(Cl)cccc21` yielded a pIC50 (P2X purinoceptor 7 [12]) greater than 8.00.

`CCOC(C)CNC(=O)c1cn(C2COC2)c2cccc(Cl)c12` (stereo unspecified) gave a pIC50 (P2X purinoceptor 7 [12]) of less than 6.00.

Compound `O=c1onc(Cc2ccc(Cl)cc2Cl)n1CC1CCC(F)(F)CC1` has a pIC50 (P2X purinoceptor 7 [1]) greater than 6.70, a pIC50 (P2X purinoceptor 7 [2]) greater than 6.70 and a pIC50 (P2X purinoceptor 7 [3]) of 6.70.

Work on `Cc1ccc(N2CCCC2=O)cc1Nc1nc(=O)cnn1Cc1cc(F)c(F)c(F)c1` yielded a pIC50 (P2X purinoceptor 7 [8]) of 8.24.

`CS(=O)(=O)C1CC[C@@](F)(C(=O)NCc2ccc(Cl)cc2Cl)c2cccnc21` (stereo partly specified) gave a pIC50 (P2X purinoceptor 7 [5]) greater than 7.30.

`COc1cc(Nc2nc(=O)c(F)cn2Cc2cc(F)c(F)c(F)c2)c(C)c(F)c1OC` gave a pIC50 (P2X purinoceptor 7 [8]) greater than 8.00.

For `COc1nc(C)c(Nc2nc(=O)c3[nH]cnc3n2Cc2ccc(F)c(F)c2)cc1C`, the pIC50 (P2X purinoceptor 7 [4]) was greater than 8.00.

`C[C@H]1CCC[C@@](O)(CNC(=O)c2cn(CCC(F)F)c3cccc(Cl)c23)C1` was tested, and the pIC50 (P2X purinoceptor 7 [12]) was greater than 8.00.

Compound `CC1=C(C(c2ccc(C)cc2)n2cc(COCc3ccco3)nn2)C(=O)c2ccccc2C1=O` (stereo unspecified) has an inhibition [11] of less than 60%.

With `Cc1ccc(Cn2c(Nc3cc4sc(C)nc4cc3C)nc(=O)c3[nH]cnc32)cc1` the pIC50 (P2X purinoceptor 7 [4]) was 6.30.

`O=c1onc(Cc2c(F)cccc2Cl)n1CC1CCC(F)(F)CC1` was tested, and the pIC50 (P2X purinoceptor 7 [1]) was greater than 6.70, the pIC50 (P2X purinoceptor 7 [2]) was greater than 6.70 and the pIC50 (P2X purinoceptor 7 [3]) was greater than 6.70.
